Measurements taken from patent US20150197492A1, “NOVEL INDENO[1,2-c]QUINOLIN-11-ONE DERIVATIVES, PREPARATION METHOD AND APPLICATION THEREOF” (National Defense Medical Center, priority 2014, published 2015).

What was measured:
Format in all cases: cell-based
human PC-3 cells = assay: Sulforhodamine B (SRB) assay, cytotoxicity against PC-3 cells; conditions: SRB assay, PC-3 cells
Procedure, shortened: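 PC-3 cells in 5% FBS were fixed with 10% TCA after 24 h as T0, then treated with compound for 48 h, fixed, stained with 0.4% SRB in 1% acetic acid and solubilized in 10 mmol/L Trizma base. Absorbance was read at 515 nm. GI% = 100−[(Tx−T0)/(C−T0)]×100, and IC50 is the concentration halving total protein.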

CCRF-CEM = assay: cells; conditions: for growth percentage: CCRF-CEM (Leukemia), 10 μM, 48 hours
HL-60 (TB) = assay: cells; conditions: HL-60 (TB) (Leukemia), 10 μM, 48 hours
A549/ATCC = assay: cells; conditions: for growth percentage: A549/ATCC (Non-Small Cell Lung Cancer), 10 μM, 48 hours
HOP-62 = assay: cells; conditions: for growth percentage: HOP-62 (Non-Small Cell Lung Cancer), 10 μM, 48 hours
NCI-H226 = assay: cells; conditions: for growth percentage: NCI-H226 (Non-Small Cell Lung Cancer), 10 μM, 48 hours
HCC-2998 = assay: cells; conditions: for growth percentage: HCC-2998 (Colon Cancer), 10 μM, 48 hours
HCT-116 = assay: cells; conditions: for growth percentage: HCT-116 (Colon Cancer), 10 μM, 48 hours
HCT-15 = assay: cells; conditions: for growth percentage: HCT-15 (Colon Cancer), 10 μM, 48 hours
HT29 = assay: cells; conditions: for growth percentage: HT29 (Colon Cancer), 10 μM, 48 hours
KM12 = assay: cells; conditions: for growth percentage: KM12 (Colon Cancer), 10 μM, 48 hours
SF-268 = assay: cells; conditions: for growth percentage: SF-268 (CNS Cancer), 10 μM, 48 hours
SF-295 = assay: cells
SF-539 = assay: cells; conditions: for growth percentage: SF-539 (CNS Cancer), 10 μM, 48 hours
U251 = assay: cells
MALME-3M = assay: cells; conditions: for growth percentage: MALME-3M (Melanoma), 10 μM, 48 hours
MDA-MB-435 = assay: cells; conditions: for growth percentage: MDA-MB-435 (Melanoma), 10 μM, 48 hours
SK-MEL-28 = assay: cells; conditions: for growth percentage: SK-MEL-28 (Melanoma), 10 μM, 48 hours
UACC-257 = assay: cells; conditions: for growth percentage: UACC-257 (Melanoma), 10 μM, 48 hours
UACC-62 = assay: cells; conditions: for growth percentage: UACC-62 (Melanoma), 10 μM, 48 hours
IGROV1 = assay: cells; conditions: for growth percentage: IGROV1 (Ovarian Cancer), 10 μM, 48 hours
NCI/ADR-RES = assay: cells; conditions: for growth percentage: NCI/ADR-RES (Ovarian Cancer), 10 μM, 48 hours
A498 = assay: cells; conditions: for growth percentage: A498 (Renal Cancer), 10 μM, 48 hours
CAKI-1 = assay: cells; conditions: for growth percentage: CAKI-1 (Renal Cancer), 10 μM, 48 hours
DU-145 = assay: cells; conditions: for growth percentage: DU-145 (Prostate Cancer), 10 μM, 48 hours
MCF7 = assay: cells; conditions: for growth percentage: MCF7 (Breast Cancer), 10 μM, 48 hours
MDA-MB-231/ATCC = assay: cells; conditions: for growth percentage: MDA-MB-231/ATCC (Breast Cancer), 10 μM, 48 hours
HS 578T = assay: cells; conditions: for growth percentage: HS 578T (Breast Cancer), 10 μM, 48 hours
BT-549 = assay: cells; conditions: for growth percentage: BT-549 (Breast Cancer), 10 μM, 48 hours
[1] = Homo sapiens, Non-Small Cell Lung Cancer A549/ATCC
[2] = Homo sapiens, Non-Small Cell Lung Cancer HOP-62
[3] = Homo sapiens, Colon Cancer HCT-116
[4] = Homo sapiens, CNS Cancer SF-268
[5] = Homo sapiens, CNS Cancer SF-295
[6] = Homo sapiens, CNS Cancer SF-539
[7] = Homo sapiens, U-251, CNS Cancer U251
[8] = Homo sapiens, Melanoma MALME-3M
[9] = Homo sapiens, Breast Cancer MDA-MB-231/ATCC

## CCN(CC)CCNc1nc2ccccc2c2c1-c1ccc(Cl)cc1C2=O [SJ-3, 6-(2-(Diethylamino)ethylamino)-9-chloro-11H-indeno[1,2-c]quinolin-11-one]
Human PC-3 cells
  Toxicity (%): 55.6%
Human PC-3 cells; 10 μM
  GI % (10 μM): 100%
CCRF-CEM
  growth percentage: 42.00%
CCRF-CEM; Homo sapiens, Leukemia CCRF-CEM
  GI50: 8.24 µM
CCRF-CEM; Homo sapiens, Leukemia CCRF-CEM, read-out: LC50 (the source's name)
  CC50: 7.8 µM
CCRF-CEM; Leukemia CCRF-CEM
  TGI: 3.50 µM
HL-60 (TB)
  growth percentage: 94.33%
A549/ATCC
  growth percentage: 51.79%
A549/ATCC; [1]
  GI50: 15.2 µM
  LC50 (50% lethal concentration): 6.72 µM
A549/ATCC; Non-Small Cell Lung Cancer A549/ATCC
  TGI: 3.51 µM
HOP-62
  growth percentage: 24.86%
HOP-62; [2]
  GI50: 4.51 µM
  LC50 (50% lethal concentration): 5.74 µM
HOP-62; Non-Small Cell Lung Cancer HOP-62
  TGI: 2.83 µM
NCI-H226; Homo sapiens, Non-Small Cell Lung Cancer NCI-H226
  GI50: 1.88 µM
NCI-H226
  growth percentage: 80.86%
HCC-2998; Colon Cancer HCC-2998
  TGI: 4.08 µM
HCC-2998
  growth percentage: 88.65%
HCC-2998; Homo sapiens, Colon Cancer HCC-2998
  GI50: > 100 µM
HCC-2998; Homo sapiens, Colon Cancer HCC-2998, read-out: LC50 (the source's name)
  CC50: 7.94 µM
HCT-116; Colon Cancer HCT-116
  TGI: 3.19 µM
HCT-116
  growth percentage: 36.96%
HCT-116; [3]
  GI50: 6.19 µM
  LC50 (50% lethal concentration): 6.06 µM
HCT-15; Colon Cancer HCT-15
  TGI: 3.51 µM
HCT-15
  growth percentage: 50.38%
HCT-15; Homo sapiens, Colon Cancer HCT-15
  GI50: 4.37 µM
HCT-15; Homo sapiens, Colon Cancer HCT-15, read-out: LC50 (the source's name)
  CC50: 7.5 µM
HT29; Colon Cancer HT29
  TGI: 3.16 µM
HT29
  growth percentage: 9.75%
HT29; Homo sapiens, HT-29, Colon Cancer HT29
  GI50: 4.23 µM
HT29; Homo sapiens, HT-29, Colon Cancer HT29, read-out: LC50 (the source's name)
  CC50: 6.28 µM
KM12; Colon Cancer KM12
  TGI: 3.11 µM
KM12; Homo sapiens, Colon Cancer KM12
  GI50: 6.48 µM
KM12; Homo sapiens, Colon Cancer KM12, read-out: LC50 (the source's name)
  CC50: 5.96 µM
KM12
  growth percentage: 53.42%
SF-268; CNS Cancer SF-268
  TGI: 3.27 µM
SF-268; [4]
  GI50: 17.7 µM
  LC50: 6.52 µM
SF-268
  growth percentage: 65.88%
SF-295; CNS Cancer SF-295
  TGI: 4.60 µM
SF-295; [5]
  GI50: 17.8 µM
  LC50 (concentration killing 50% of cells): 9.85 µM
SF-539; CNS Cancer SF-539
  TGI: 3.15 µM
SF-539; [6]
  GI50: 20.9 µM
  LC50 (concentration giving 50% net cell kill): 5.86 µM
SF-539
  growth percentage: 85.04%
U251; CNS Cancer U251
  TGI: 3.06 µM
U251; [7]
  GI50: 11.4 µM
  LC50 (concentration killing 50% of cells): 5.88 µM
MALME-3M; [8]
  GI50: 17.3 µM
  LC50 (concentration killing 50% of cells): 7.46 µM
MALME-3M
  growth percentage: 52.55%
MALME-3M; Melanoma MALME-3M
  TGI: 3.83 µM
MDA-MB-435; Homo sapiens, Melanoma MDA-MB-435
  GI50: 20.2 µM
MDA-MB-435; Homo sapiens, Melanoma MDA-MB-435, read-out: LC50 (the source's name)
  CC50: 7.62 µM
MDA-MB-435
  growth percentage: 92.72%
MDA-MB-435; Melanoma MDA-MB-435
  TGI: 3.86 µM
SK-MEL-28; Homo sapiens, Melanoma SK-MEL-28
  GI50: 6 µM
SK-MEL-28; Homo sapiens, Melanoma SK-MEL-28, read-out: LC50 (the source's name)
  CC50: 5.83 µM
SK-MEL-28; Melanoma SK-MEL-28
  TGI: 3.21 µM
SK-MEL-28
  growth percentage: 87.40%
UACC-257; Homo sapiens, Melanoma UACC-257
  GI50: 21.2 µM
UACC-257; Homo sapiens, Melanoma UACC-257, read-out: LC50 (the source's name)
  CC50: 6.37 µM
UACC-257; Melanoma UACC-257
  TGI: 3.39 µM
UACC-257
  growth percentage: 92.18%
UACC-62; Homo sapiens, Melanoma UACC-62
  GI50: 14.8 µM
UACC-62; Homo sapiens, Melanoma UACC-62, read-out: LC50 (the source's name)
  CC50: 6.68 µM
UACC-62; Melanoma UACC-62
  TGI: 3.31 µM
UACC-62
  growth percentage: 99.56%
IGROV1; Homo sapiens, IGROV-1, Ovarian Cancer IGROV1
  GI50: 11.2 µM
IGROV1; Homo sapiens, IGROV-1, Ovarian Cancer IGROV1, read-out: LC50 (the source's name)
  CC50: 7.82 µM
IGROV1
  growth percentage: 43.43%
IGROV1; Ovarian Cancer IGROV1
  TGI: 3.62 µM
NCI/ADR-RES; Homo sapiens, Ovarian Cancer NCI/ADR-RES
  GI50: 19.3 µM
NCI/ADR-RES; Homo sapiens, Ovarian Cancer NCI/ADR-RES, read-out: LC50 (the source's name)
  CC50: 7.41 µM
NCI/ADR-RES
  growth percentage: 69.55%
NCI/ADR-RES; Ovarian Cancer NCI/ADR-RES
  TGI: 3.67 µM
A498
  growth percentage: 88.98%
A498; Homo sapiens, Renal Cancer A498
  GI50: 8.76 µM
A498; Homo sapiens, Renal Cancer A498, read-out: LC50 (the source's name)
  CC50: 50.8 µM
A498; Renal Cancer A498
  TGI: 1.78 µM
CAKI-1
  growth percentage: 64.35%
CAKI-1; Homo sapiens, Renal Cancer CAKI-1
  GI50: 14.8 µM
CAKI-1; Homo sapiens, Renal Cancer CAKI-1, read-out: LC50 (the source's name)
  CC50: 6.8 µM
CAKI-1; Renal Cancer CAKI-1
  TGI: 3.26 µM
DU-145
  growth percentage: 65.48%
DU-145; Homo sapiens, Prostate Cancer DU-145
  GI50: 18.8 µM
DU-145; Homo sapiens, Prostate Cancer DU-145, read-out: LC50 (the source's name)
  CC50: 5.43 µM
DU-145; Prostate Cancer DU-145
  TGI: 2.94 µM
MCF7; Breast Cancer MCF7
  TGI: 2.60 µM
MCF7; Homo sapiens, Breast Cancer MCF7
  GI50: 0.44 µM
MCF7; Homo sapiens, Breast Cancer MCF7, read-out: LC50 (the source's name)
  CC50: 5.54 µM
MCF7
  growth percentage: 12.70%
MDA-MB-231/ATCC; Breast Cancer MDA-MB-231/ATCC
  TGI: 2.71 µM
MDA-MB-231/ATCC; [9]
  GI50: 2.23 µM
  LC50 (concentration giving 50% net cell kill): 5.7 µM
MDA-MB-231/ATCC
  growth percentage: 25.16%
HS 578T; Breast Cancer HS 578T
  TGI: 10.00 µM
HS 578T
  growth percentage: 84.70%
HS 578T; Homo sapiens, Breast Cancer HS 578T
  GI50: 19.3 µM
HS 578T; Homo sapiens, Breast Cancer HS 578T, read-out: LC50 (the source's name)
  CC50: 46.1 µM
BT-549
  growth percentage: 87.48%
BT-549; Breast Cancer BT-549
  TGI: 9.50 µM
BT-549; Homo sapiens, Breast Cancer BT-549
  GI50: 32.5 µM
BT-549; Homo sapiens, Breast Cancer BT-549, read-out: LC50 (the source's name)
  CC50: 45.5 µM

## O=C1c2cc(Cl)ccc2-c2c(N3CCOCC3)nc3ccccc3c21 [SJ-8, 9-Chloro-6-morpholino-11H-indeno[1,2-c]quinolin-11-one]
Human PC-3 cells; Homo sapiens, 48 hours, read-out: IC50
  IC50: > 10 µM
CCRF-CEM
  growth percentage: 88.85%
HL-60 (TB)
  growth percentage: 97.09%
A549/ATCC
  growth percentage: 101.47%
HOP-62
  growth percentage: 78.71%
NCI-H226
  growth percentage: 87.21%
HCC-2998
  growth percentage: 107.23%
HCT-116
  growth percentage: 93.64%
HCT-15
  growth percentage: 80.29%
HT29
  growth percentage: 91.34%
KM12
  growth percentage: 109.99%
SF-268
  growth percentage: 103.58%
SF-295; SF-295 (CNS Cancer), 10 μM, 48 hours
  growth percentage: 102.43%
SF-539
  growth percentage: 96.24%
U251; U251 (CNS Cancer), 10 μM, 48 hours
  growth percentage: 95.72%
MALME-3M
  growth percentage: 136.93%
MDA-MB-435
  growth percentage: 106.62%
SK-MEL-28
  growth percentage: 113.81%
UACC-257
  growth percentage: 103.31%
UACC-62
  growth percentage: 88.33%
IGROV1
  growth percentage: 86.47%
NCI/ADR-RES
  growth percentage: 94.32%
A498
  growth percentage: 93.88%
CAKI-1
  growth percentage: 94.99%
DU-145
  growth percentage: 119.02%
MCF7
  growth percentage: 52.31%
MDA-MB-231/ATCC
  growth percentage: 79.28%
HS 578T
  growth percentage: 88.93%
BT-549
  growth percentage: 93.95%
